This passage reports MIC results from DBAASP.

Among the test systems are Shigella dysenteriae; Bacillus cereus; Staphylococcus aureus 1; Bacillus subtilis; Candida albicans 5; Proteus vulgaris; Arcyria cinerea; Klebsiella pneumoniae 2; Nocardia asteroides; Acinetobacter baumannii; Pseudomonas aeruginosa 2; Candida albicans; Klebsiella oxytoca; Candida glabrata; Klebsiella pneumoniae 5; Klebsiella pneumoniae 1; Candida glabrata 1; Proteus mirabilis; Escherichia coli; Staphylococcus aureus 4; Klebsiella pneumoniae; Candida albicans 1; Serratia marcescens; Enterococcus faecium; Pseudomonas aeruginosa 1; Enterococcus faecalis; Cryptococcus neoformans; Candida albicans C627; Escherichia coli HB101.

What all share (assay): ≥ marks a high value that may be exact or a test limit, other limits are often not marked, values filed in µg/mL are converted to µM
The test system of assay [1] is Escherichia coli ATCC 25922.
For assay [2], the system named is Candida albicans 08030401.
The subject of assay [3] is Candida albicans 08032815.
The test system of assay [4] is Candida albicans ATCC 2002.
Assay [5] deals with Candida albicans 08022821.
Assay [6] has as its system Candida albicans 08030102.
Assay [7] relates to Staphylococcus aureus ATCC 2592.
Assay [8] deals with Salmonella enterica subsp. enterica serovar Paratyphi A.
The test system of assay [9] is Stenotrophomonas maltophilia.
For assay [10], the system named is Pseudomonas aeruginosa ATCC 27853.
The test system of assay [11] is Stenotrophomonas maltophilia 2.
The subject of assay [12] is Staphylococcus epidermidis.
The test system of assay [13] is Staphylococcus aureus ATCC 25923.
Assay [14] relates to Staphylococcus aureus C623.
The test system of assay [15] is Escherichia coli ESBL 63103.
Assay [16] has as its system Enterococcus faecium mic80.
The test system of assay [17] is Pseudomonas aeruginosa 213.
The subject of assay [18] is Pseudomonas aeruginosa H103.
For assay [19], the system named is Pseudomonas aeruginosa LES400.
Assay [20] has as its system Staphylococcus aureus Cowan 1.
Assay [21] relates to Leishmania major MHOM/IL/67/JERICHO-II.

Values after ≈ are worked out from the molar mass of the structure shown. Bounds are passed on as bounds.

What is called MIC is the lowest concentration that inhibits growth of the organism. Turning to `CC[C@H](C)[C@H](NC(=O)[C@H](CCC(N)=O)NC(=O)[C@H](CCCCN)NC(=O)[C@H](Cc1ccc(O)cc1)NC(=O)[C@H](CC(C)C)NC(=O)[C@H](CCC(N)=O)NC(=O)[C@@H]1CCCN1C(=O)[C@H](CCSC)NC(=O)[C@H](CCCCN)NC(=O)[C@@H](NC(=O)[C@H](CCCN=C(N)N)NC(=O)[C@H](CCCCN)NC(=O)[C@@H](NC(=O)[C@H](CCSC)NC(=O)[C@@H](NC(=O)[C@H](CC(C)C)NC(=O)[C@@H](NC(=O)[C@@H](N)CCCN=C(N)N)[C@@H](C)CC)[C@@H](C)O)[C@@H](C)O)C(C)C)C(=O)N[C@H](C(=O)N[C@H]1CSSC[C@@H](C(=O)O)NC(=O)[C@H]([C@@H](C)O)NC(=O)[C@H](CCCCN)NC(=O)[C@H](Cc2ccccc2)NC(=O)[C@H](CC(C)C)NC(=O)[C@H](CCCN=C(N)N)NC1=O)C(C)C` [RILTMTKRVKMPQLYKQIVCRLFKTC], the MIC in assay [1] is 31.3 µM (≈ 99.9 µg/mL); with Shigella dysenteriae, 15.6 µM (≈ 50 µg/mL); in assay [2] it was 15.6 µM (≈ 50 µg/mL); in assay [3], at least 62.5 µM; in [4], 3.13 µM (≈ 9.99 µg/mL); in [5], 7.81 µM (≈ 25 µg/mL). The MIC in assay [6] stood at 31.3 µM (≈ 99.9 µg/mL); in assay [7], 15.6 µM (≈ 50 µg/mL).
As for `CC[C@H](C)[C@H](NC(=O)[C@H](CO)NC(=O)[C@H](CCCCN)NC(=O)[C@@H](NC(=O)[C@H](CCCCN)NC(=O)[C@H](CCCCN)NC(=O)[C@H](CCCCN)NC(=O)[C@@H](NC(=O)[C@H](CCCCN)NC(=O)[C@@H]1CSSC[C@H](NC(=O)[C@H](CCCCN)NC(=O)[C@@H](N)CCCCN)C(=O)N[C@@H](CCCCN)C(=O)N[C@@H](Cc2ccccc2)C(=O)N[C@@H](Cc2ccccc2)C(=O)N1)C(C)C)[C@@H](C)CC)C(=O)NCC(=O)N[C@@H](Cc1ccccc1)C(=O)N[C@@H](CCC(N)=O)C(=O)N[C@H](C(=O)N1CCC[C@H]1C(=O)N[C@H](C(=O)N[C@H](C(=O)N[C@@H](CO)C(=O)N[C@H](C(=O)N1CCC[C@H]1C(=O)N[C@@H](Cc1ccccc1)C(=O)N[C@@H](CCCCN)C(=O)O)[C@@H](C)CC)C(C)C)[C@@H](C)CC)[C@@H](C)CC` [KKCKFFCKVKKKIKSIGFQIPIVSIPFK], the MIC in [8] is 11.4 µM (≈ 37.5 µg/mL); in the assay on Bacillus cereus, at least 60.9 µM; in the assay with Staphylococcus aureus 1, 2.02 µM (≈ 6.63 µg/mL); in assay [9] it was 11.4 µM (≈ 37.5 µg/mL); with Bacillus subtilis it was 2.86 µM (≈ 9.37 µg/mL); with Candida albicans 5 it was at least 60.9 µM. Further, the MIC in assay [10] was 2.86 µM (≈ 9.37 µg/mL); in [11], 2.86 µM (≈ 9.37 µg/mL); in the assay with Proteus vulgaris, at least 60.9 µM; against Arcyria cinerea, 5.71 µM (≈ 18.7 µg/mL); in the assay with Klebsiella pneumoniae 2 it was 5.71 µM (≈ 18.7 µg/mL); in the assay with Nocardia asteroides it was 22.8 µM (≈ 75 µg/mL). Moreover, the MIC with Acinetobacter baumannii is at least 60.9 µM; in the assay on Pseudomonas aeruginosa 2, 1.43 µM (≈ 4.69 µg/mL); against Shigella dysenteriae, 1.43 µM (≈ 4.69 µg/mL); in the assay on Candida albicans, 11.4 µM (≈ 37.5 µg/mL); in assay [12], 2.86 µM (≈ 9.37 µg/mL); against Klebsiella oxytoca it was 1.43 µM (≈ 4.69 µg/mL). For the same compound, the MIC against Candida glabrata is at least 60.9 µM; with Klebsiella pneumoniae 5, at least 60.9 µM; in the assay with Klebsiella pneumoniae 1, 11.4 µM (≈ 37.5 µg/mL); with Candida glabrata 1 it was 2.86 µM (≈ 9.37 µg/mL); with Proteus mirabilis, 5.71 µM (≈ 18.7 µg/mL); against Escherichia coli it was 4.04 µM (≈ 13.3 µg/mL). The MIC is at least 60.9 µM in the assay with Staphylococcus aureus 4; over 60.9 µM in assay [13]; 22.8 µM (≈ 75 µg/mL) in the assay on Klebsiella pneumoniae; 2.86 µM (≈ 9.37 µg/mL) against Candida albicans 1; at least 60.9 µM with Serratia marcescens; 2.86 µM (≈ 9.37 µg/mL) against Enterococcus faecium. Further, the MIC with Pseudomonas aeruginosa 1 is 5.71 µM (≈ 18.7 µg/mL); against Enterococcus faecalis, 22.8 µM (≈ 75 µg/mL); in the assay on Cryptococcus neoformans, at least 60.9 µM.
Take `CC(C)C[C@H](NC(=O)[C@H](CC(C)C)NC(=O)[C@H](CCCN=C(N)N)NC(=O)[C@H](Cc1c[nH]c2ccccc12)NC(=O)[C@H](Cc1c[nH]c2ccccc12)NC(=O)[C@H](CCCN=C(N)N)NC(=O)[C@H](CCCCN)NC(=O)[C@H](Cc1c[nH]c2ccccc12)NC(=O)[C@@H](N)CCCN=C(N)N)C(=O)O` [RWKRWWRLL]: the MIC was 5.72 µM (≈ 8 µg/mL) against Candida albicans C627; 5.72 µM (≈ 8 µg/mL) in [14]; 11.4 µM (≈ 16 µg/mL) in assay [15]; 5.72 µM (≈ 8 µg/mL) in [16]; at least 45.7 µM in assay [17]; 11.4 µM (≈ 16 µg/mL) in [13]. Moreover, the MIC in [18] and in assay [19] was 22.9 µM (≈ 32 µg/mL) in each case.
For `CSCC[C@H](NC(=O)[C@@H](NC(=O)[C@H](CCCCN)NC(=O)[C@H](Cc1c[nH]c2ccccc12)NC(=O)[C@H](CC(C)C)NC(=O)[C@H](C)N)[C@@H](C)O)C(=O)N[C@@H](CC(C)C)C(=O)N[C@@H](CCCCN)C(=O)N[C@@H](CCCCN)C(=O)N[C@@H](CC(C)C)C(=O)NCC(=O)N[C@H](C(N)=O)[C@@H](C)O` [ALWKTMLKKLGT], the results for the MIC (in assay [20]; in assay [21]; in the assay on Escherichia coli HB101) were at least 54 µM, at least 54.2 µM and at least 54 µM, respectively.
